Entries after “also recorded” stand apart in the source; their conditions may differ. Read-outs that look alike come from different tables or passages of the source.
How the values were obtained:
hiPSC-CMs [1] = test: Mitochondrial morphology, Mitotracker staining (elongated / punctate / perinuclear); set-up: perinuclear mitochondria: dose or concentration left out as unconfirmed; details: for mitochondrial morphology (MTDR dye): FIG. 8B, treated CMs vs control; for proportion of cells with healthy elongated mitochondria: FIG. 8C; for proportion of cells with punctate, fragmented mitochondria / proportion of punctate mitochondria / proportion of elongated mitochondria: 3 days; for proportion of cells with punctate, fragmented mitochondria: control 21.0±5.9%; for proportion of cells with punctate mitochondria / elongated mitochondria: 3 days hypoxic treatment + 3 days recovery; for proportion of cells with punctate mitochondria: control 46.1±[…]; for elongated mitochondria: control 47.4±4.9%; for proportion of punctate mitochondria / proportion of elongated mitochondria: hypoxic; for proportion of punctate mitochondria: control 37.3±6.1%; for proportion of elongated mitochondria: control 45.1±7.8%
hiPSC-CMs [2] = tested on: hiPSC-CMs
hiPSC-CMs [3] = tested on: hiPSC-CMs; remark: listed apart in the source
[4] = biological target: human mitochondrial RNA polymerase (Homo sapiens, UniProt O00411); details: purified enzyme; cited from earlier work
Sequence of human mitochondrial RNA polymerase (O00411 42-1230): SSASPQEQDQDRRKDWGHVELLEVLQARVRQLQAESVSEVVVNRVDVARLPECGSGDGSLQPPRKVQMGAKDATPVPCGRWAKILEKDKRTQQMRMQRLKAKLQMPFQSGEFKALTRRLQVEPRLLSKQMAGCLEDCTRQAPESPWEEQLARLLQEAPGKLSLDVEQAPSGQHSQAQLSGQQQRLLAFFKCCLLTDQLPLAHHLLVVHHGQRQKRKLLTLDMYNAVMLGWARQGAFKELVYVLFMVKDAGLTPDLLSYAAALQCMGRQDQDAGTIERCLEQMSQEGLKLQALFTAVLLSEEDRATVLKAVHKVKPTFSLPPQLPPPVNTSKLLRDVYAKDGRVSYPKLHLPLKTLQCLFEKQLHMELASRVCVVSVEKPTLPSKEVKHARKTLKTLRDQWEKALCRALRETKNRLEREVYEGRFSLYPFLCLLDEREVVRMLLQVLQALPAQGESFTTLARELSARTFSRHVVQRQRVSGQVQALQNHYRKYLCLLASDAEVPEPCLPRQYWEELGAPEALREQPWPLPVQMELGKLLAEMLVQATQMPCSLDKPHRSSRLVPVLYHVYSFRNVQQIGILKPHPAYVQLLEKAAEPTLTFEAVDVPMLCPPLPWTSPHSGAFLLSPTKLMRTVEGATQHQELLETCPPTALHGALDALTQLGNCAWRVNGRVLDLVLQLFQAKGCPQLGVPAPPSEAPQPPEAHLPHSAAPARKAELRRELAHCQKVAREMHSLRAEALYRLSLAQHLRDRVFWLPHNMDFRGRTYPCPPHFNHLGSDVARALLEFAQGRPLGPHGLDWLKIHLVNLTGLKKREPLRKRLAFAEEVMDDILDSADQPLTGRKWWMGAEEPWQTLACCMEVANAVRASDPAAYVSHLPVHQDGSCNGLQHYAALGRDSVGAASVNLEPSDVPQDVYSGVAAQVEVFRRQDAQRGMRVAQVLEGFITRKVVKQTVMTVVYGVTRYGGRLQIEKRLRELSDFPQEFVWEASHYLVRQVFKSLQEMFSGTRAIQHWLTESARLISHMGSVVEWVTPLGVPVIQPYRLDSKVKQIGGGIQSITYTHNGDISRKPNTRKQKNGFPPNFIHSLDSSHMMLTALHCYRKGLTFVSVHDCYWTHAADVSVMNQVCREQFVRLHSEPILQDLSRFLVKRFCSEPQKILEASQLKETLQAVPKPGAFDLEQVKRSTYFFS

hiPSC-CMs [5] = test: In vitro hiPSC-CM cardiotoxicity model, overall; assay type: cell-based, human; details: 0.1 μM and 0.5 μM
Excerpt: Importantly, these changes persisted and worsened after the withdrawal of this drug.
Human iPSC-CMs were exposed to remdesivir under normal and hypoxic conditions for three days. There is a paucity of data which directly correlates oxygen saturation in vivo with oxygen concentration in vitro. […] Human iPSC-CMs exposed to 2.5% 02 were viable, beat and were morphologically indistinguishable from hiPSC-CMs cultured under normoxic (20% 02) conditions.
Importantly, these abnormalities persisted after cessation of treatment, culminating in increased cell death.

hiPSC-CMs [6] = test: Mitochondrial mass, mitotracker dye (MTDR) intensity; assay type: cell-based, human; details: 0.1-12.5 μM, 3 days, normoxic and hypoxic
Protocol: (§1) Cells were incubated with Mitotracker Deep Red FM dye (200 nM; Thermo Fisher Scientific) and Hoescht 33342 dye (5 μg/ml; Thermo Fisher Scientific) for 30 min at 37° C., after which they were fixed with 4% paraformaldehyde at room temperature for 15 min followed by 15 min wash with PBS and imaged with a Leica THUNDER Imager microscope or Nikon AIR HD25 confocal microscope.
The first consisted of densely organised, elongated mitochondrial networks spread throughout the cytoplasm and this is considered to represent a healthy balance of fission and fusion. The second had punctate, fragmented mitochondria consistent with increased fission.

[7] = cited from earlier work; for peak plasma concentration: healthy adult volunteers; for Cmax: healthy volunteers, read-out: Cmax / peak plasma concentration
hiPSC-CMs [8] = test: Nuclear condensation / nuclear morphology / cell number, Hoescht staining; assay type: cell-based, human
Protocol: as §1
Similarly, nuclei were scored as normal (relatively large nuclei with regular shape) or condensed (intensely stained nuclei with irregular shape) by a technician blinded to the identities of the samples.
Nuclear condensation is a sign of apoptosis and manifest as brightly-stained, small and ‘condensed’ nuclei.

[9] = tested on: HT29, HCT116, HepG2 and PLC/PRF/5; details: high doses of 10 or 20 μM; cited from earlier work
hPSC-CMs = details: cited from earlier work
[10] = tested on: ND1, ND5, SDHA, COX6A2, ATP6, ACADVL mRNA; test: qRT-PCR of genes important for mitochondrial function; assay type: cell-based, human; details: 3 days, normoxic or hypoxic, normalised to B2M
Protocol: Total RNA was extracted using Trizol Reagent according to the manufacturer's instructions (Thermo Fisher Scientific). Extracted RNA was reverse transcribed using PrimeScript RT Master Mix (Takara). Quantitative RT-PCR of target genes was performed with GoTaq® qPCR Master Mix (Promega) using an QuantStudio™ 12K Flex. Gene transcript abundance was normalised to B2M and then to that of the untreated sample to control for biological variations among the different sets of samples.
Of the ETC genes, ND1, ND5 and ATP6 are encoded by the mitochondrial genome, while COX6A2 and SDHA are encoded by the nuclear genome. […] Overall, the general repression of ETC gene transcripts was consistent with and might contribute to the reduced redox potential observed (FIG. 1A).

hiPSC-CMs [11] = details: human
[12] = cited from earlier work
hiPSC-CMs [13] = test: Mitochondrial membrane potential (Δψm), TMRE; assay type: cell-based, human; details: 3 days, treated vs control
Protocol: Δψm was measured using the tetramethylrhodamine, ethyl ester (TMRE), a potentiometric dye whose fluorescent intensity is proportional to the mitochondrial potential. CMs were plated into Matrigel-coated surfaces in RPMI/B27 medium. Cells were incubated with TMRE (25 nM; Thermo Fisher Scientific) for 30 min at 37° C., after which they were washed with DPBS and intensity of fluorescence was measured using the Synergy HTX plate-reader (Biotek, Winooski, Vt.) with excitation and emission wavelengths of 540 nm and 590 nm.

hiPSC-CMs [14] = tested on: hiPSC-CMs; remark: listed apart in the source
[15] = co-treatment with 12.5 μM remdesivir

With `COc1nc(N)nc2c1ncn2[C@@H]1O[C@H](COP(=O)(N[C@@H](C)C(=O)OCC(C)(C)C)Oc2cccc3ccccc23)[C@@H](O)[C@@]1(C)O` (some centres unmarked) [BMS-986094] the “mitochondrial morphology (MTDR dye)” value (hiPSC-CMs [1]) was “punctate (arrowhead) or perinuclear (arrow) mitochondria” and the “proportion of cells with healthy elongated mitochondria” value (hiPSC-CMs [1]) was “reduced”.

For `COc1cc(-n2c(=S)[nH]c3ccccc3c2=O)c(Cl)cc1Cl` [mdivi-1], the “sarcomeres (MLC2V-eGFP)” value (hiPSC-CMs [2]; MD 15 mM co-treatment vs remdesivir alone (FIG. 5D)) was “more striated sarcomeres”, the sarcomere arrangement (hiPSC-CMs [2]; co-treatment with 2.5 μM and 12.5 μM remdesivir) was “improved the sarcomere arrangement” and the redox potential (hiPSC-CMs [3]; co-treatment with 2.5 μM remdesivir, normoxic and hypoxic) was “restored redox potential”. For the same compound, the redox potential (hiPSC-CMs [3]; [15]) was “did not have noticeable effect”, the “proportion of cells with elongated mitochondria” value (hiPSC-CMs [1]; MD 15 mM, (FIG. 5B)) was “increased the proportion of cells with elongated mitochondria” and the “formation of elongated mitochondria vs remdesivir alone” value (hiPSC-CMs [1]; co-treatment with 2.5 μM remdesivir, normoxic) was “significantly promoted the formation of elongated mitochondria”. For the same compound, the “protection of mitochondrial morphology” value (hiPSC-CMs [1]; [15]) was “could only significantly protect hiPSC-CMs under hypoxic but not normoxic conditions” and the “proportion of cells with punctate mitochondria vs remdesivir alone” value (hiPSC-CMs [1]; co-treatment with remdesivir, hypoxia) was “corresponding decrease”.

For `N#C[C@@]1(c2ccc3c(N)ncnn23)O[C@H](COP(=O)(O)OP(=O)(O)OP(=O)(O)O)[C@@H](O)[C@H]1O` [remdesivir-triphosphate], the “selectivity value (discrimination against the analogue)” value [4] is given as roughly 500 fold.

For `CCC(CC)COC(=O)[C@H](C)N[P@](=O)(OC[C@H]1O[C@@](C#N)(c2ccc3c(N)ncnn23)[C@H](O)[C@@H]1O)Oc1ccccc1` [remdesivir], the persistent functional alterations (hiPSC-CMs [5]) was “did not induce persistent functional alterations”, the sarcomeric arrangement (hiPSC-CMs [2]; 0.5 μM, 3 days, hypoxia) was “induced the thinning and truncation of myofibrils” and the sarcomeric arrangement (hiPSC-CMs [2]; 2.5 μM and 12.5 μM, 3 days treatment + 3 days recovery) was “disorganised sarcomeric arrangement”. The sarcomeric arrangement (hiPSC-CMs [2]; 0.1 and 0.5 μM, 3 days, normoxic) was “did not have any noticeable effect”, the sarcomeric arrangement (hiPSC-CMs [2]; 2.5 and 12.5 μM, 3 days, normoxic and hypoxic) was “greatly disorganised myofibrils” and the mitochondrial mass (hiPSC-CMs [6]) was “not statistically different”. The “effect on redox potential” value (hiPSC-CMs [3]; 0.1 μM and 0.5 μM, 3 days, normoxic and hypoxic) was “negligible effects”, the “decrease of redox potential” value (hiPSC-CMs [3]; 2.5 μM, 3 days hypoxic treatment + 3 days recovery without drug) was 41.0±8.7% and the “decrease of redox activity” value (hiPSC-CMs [3]; 2.5 μM, 3 days, hypoxic (2.5% O2)) was 22.5±5.4%. For the same compound, the “decrease of redox activity” value (hiPSC-CMs [3]; 2.5 μM, 3 days, normoxic) was 21.0±3.9%, the “decrease of redox potential” value (hiPSC-CMs [3]; 12.5 μM, 3 days hypoxic treatment + 3 days recovery without drug) was 54.6±8.5% and the “decrease of redox potential” value (hiPSC-CMs [3]; 12.5 μM, 3 days normoxic treatment + 3 days recovery without drug) was 44.1±8.1%. For the same compound, the “decrease of redox activity” value (hiPSC-CMs [3]; 12.5 μM, 3 days, hypoxic (2.5% O2)) was 28.7±6.9%, the “decrease of redox activity” value (hiPSC-CMs [3]; 12.5 μM, 3 days, normoxic) was 35.9±4.0% and the peak plasma concentration ([7]; day 1 (200 mg)) was 5.4 µg/mL. For the same compound, the peak plasma concentration ([7]; day 5) was 2.6 µg/mL, the Cmax ([7]; day 1 (200 mg)) was 8.9 µM and the Cmax ([7]; day 5) was 4.3 µM. The “proportion of condensed nuclei” value (hiPSC-CMs [8]; 2.5 μM and 12.5 μM, three days after treatment (recovery)) was “dose dependent increase”, the cell number (hiPSC-CMs [8]; 3 days, all samples) was “No significant difference” and the “number / proportion of cells with condensed nuclei” value (hiPSC-CMs [8]; immediately after 3 days of treatment) was “did not reveal any significant increase; also recorded: no statistically significant difference”. The “mitochondrial morphology, treated vs control” value (hiPSC-CMs [1]; 0.5 μM, 3 days treatment + 3 days recovery) was “no significant difference”, the “proportion of cells with punctate, fragmented mitochondria” value (“proportion … fragmented mitochondria” for short) (hiPSC-CMs [1]; 0.5 μM, normoxic) was 44.4±7.1% and the “proportion of cells with punctate mitochondria” value (hiPSC-CMs [1]; 2.5 μM) was 66.1±1.1%. The elongated mitochondria (hiPSC-CMs [1]; 2.5 μM) was 19.7±2.5%, the “proportion of punctate mitochondria” value (hiPSC-CMs [1]; 2.5 μM) was 64.4±4.1% and the “proportion of elongated mitochondria” value (hiPSC-CMs [1]; 2.5 μM) was 18.7±3.0%. For the same compound, the “proportion … fragmented mitochondria” value (hiPSC-CMs [1]; 2.5 μM, normoxic) was 57.3±7.2%, the “proportion of cells with punctate mitochondria” value (hiPSC-CMs [1]; 12.5 μM) was 65.5±6.6% and the elongated mitochondria (hiPSC-CMs [1]; 12.5 μM) was 4.6±2.1%. For the same compound, the “proportion of cells with perinuclear mitochondria” value (hiPSC-CMs [1]; 12.5 μM, 3 days treatment + 3 days recovery (follows the hypoxic data), control 6.5±1.5%) was 29.9±5.7%, the “proportion of punctate mitochondria” value (hiPSC-CMs [1]; 12.5 μM) was 58.9±8% and the “proportion of elongated mitochondria” value (hiPSC-CMs [1]; 12.5 μM) was 17.8±4.2%. The “proportion … fragmented mitochondria” value (hiPSC-CMs [1]; 12.5 μM, normoxic) was 64.4±9.5%, the perinuclear mitochondria (hiPSC-CMs [1]; 3 days treatment + 3 days recovery (FIG. 4C)) was “enriched” and the “proportion of cells with healthy elongated mitochondria” value (hiPSC-CMs [1]) was “reduced”. The mitochondrial toxicity [9] was “demonstrated”, the QT intervals (hPSC-CMs) was “prolong QT intervals” and the “ATP6 mRNA expression” value [10] was “dose-dependently and significantly reduced”. For the same compound, the “COX6A2 mRNA expression” value [10] was “dose-dependently and significantly reduced”, the “ND1 mRNA expression” value [10] was “dose-dependently and significantly reduced” and the “ND5 mRNA expression” value [10] was “dose-dependently and significantly reduced”. The spontaneous firing frequency (hiPSC-CMs [11]) was 0.36±0.07 Hz, the “rate of cardiac death” value ([12]; WHO Solidarity trial, comparator 0.4%) was 0.3% and the serious atrial fibrillation ([12]; one clinical study, placebo 0.2%) was 0.9%. For the same compound, the “risk of cardiac arrest” value ([12]; one clinical study, placebo 1.4%) was 1.9% and the “depolarisation of mitochondrial membrane potential (Δψm)” value (hiPSC-CMs [13]) was “No statistically significant decrease”.

For `NC(=O)c1ncn([C@@H]2O[C@H](CO)[C@@H](O)[C@H]2O)n1` [ribavirin], the “proportion of cells with healthy elongated mitochondria” value (hiPSC-CMs [14]) was “did not have noticeable effect” and the “mitochondrial morphology (MTDR dye)” value (hiPSC-CMs [1]) was “primarily had elongated mitochondria”.

In the case of β-D-N4-hydroxycytidine, the “mitochondrial morphology (MTDR dye)” value (hiPSC-CMs [1]) is reported as “punctate (arrowhead) or perinuclear (arrow) mitochondria” and the “proportion of cells with healthy elongated mitochondria” value (hiPSC-CMs [1]) is reported as “reduced”.

From US20220412956A1, “METHODS FOR ASSESSING TOXICITY OF A COMPOUND” (The Chinese University of Hong Kong, priority 2021, published 2022)
